Source: article PMC12679848, “Sulphonamide derivatives with a triazine core as novel inducers of apoptosis and pyroptosis in glioblastoma multiforme cells” (Journal of Enzyme Inhibition and Medicinal Chemistry, 2025)

Tests used:
caspase 9 [1] = assay: Caspase 9 activation (FAM FLICA), A172; format: cell-based, human; conditions: A172, 1.5 μM, 24 h
Description: (§1) The activity of caspase 1, caspase 3/7, caspase 8, and caspase 9 was evaluated through the utilisation of FAM FLICA Caspase Assays (ImmunoChemistry Technologies, Bloomington, MN, USA), in accordance with the established protocols. Following treatment with the compounds, the cells were collected at a concentration of 1 × 10^6 cells/mL, washed twice with cold PBS, and resuspended in 290 μL of PBS. The subsequent step involved the addition of 10 μL of 30X FLICA solution, followed by incubation at 37 °C in the absence of light for one hour. Then, 2 ml of Apoptosis Wash Buffer was added, and the samples were washed twice. A 300 μL aliquot of each sample was transferred to a BD FACSCanto II flow cytometer (Becton Dickinson Biosciences, San Jose, CA, USA), where 10,000 events per sample were recorded. The resulting data was then analysed using FACSDiva software, version 6.1.3 (BD Biosciences Systems, San Jose, CA, USA).

C8-D1A = assay: MTT assay, C8-D1A astrocytes; format: cell-based; conditions: C8-D1A mouse astrocytes, 24 h of incubation; read-out: IC50 values ± SEM, MTT assay
Description: (§2) Human glioblastoma cell lines (A172 CRL-1620™, U-87 MG HTB-14™, U-118 MG HTB-15™, T98G CRL-1690™) and the mouse astrocyte cell line (C8-D1A CRL-2541™) were obtained from the American Type Culture Collection (ATCC, Manassas, VA, USA). The cell lines were cultured in complete medium: DMEM (Corning, Kennebunk, ME, USA) for C8-D1A and T98G, and EMEM (ATCC, Manassas, VA, USA) for A172, U-87 MG, U118MG. The media were supplemented with 10% foetal bovine serum (Eurx, Gdansk, Poland) and 1% penicillin-streptomycin solution (Corning, Kennebunk, ME, USA). Cells were cultured in cell culture flasks (Sarstedt, Numbrecht, Germany) at 37 °C in 5% CO2. For experiments, cells were washed with phosphate-buffered saline without calcium and magnesium (Corning, Kennebunk, ME, USA) and treated with 0.05% trypsin and 0.02% EDTA (Corning, Kennebunk, ME, USA). Cells were counted using a Sceptre 3.0 cell counter (Merck Millipore, Burlington, MA, USA) prior to seeding into plates. For 6-well plates, 5 x 10^5 cells/mL were seeded, while for 96-well plates (Sarstedt, Numbrecht, Germany), 1 x 10^5 cells/mL were seeded in 100 μL of the medium.
(§3) The cell lines were seeded in 96-well plates and cultured according to the methodology described in the previous section. Cells were then treated with the novel derivatives MM118 and MM119 and the reference compound temozolomide (TMZ) (Sigma-Aldrich, St. Louis, MO, USA) at concentrations of 0.1, 0.25, 0.5, 1.0, 2.5, 5.0, and 10.0 μM for 24 h. The MTT assay was performed using a solution of 3–(4,5-dimethyl-2-thiazolyl)-2,5-diphenyl-2H-tetrazolium bromide (Sigma-Aldrich, St. Louis, MO, USA) at a concentration of 5 mg/mL in phosphate-buffered saline without calcium and magnesium (Corning, Kennebunk, ME, USA). After 24 h incubation with test compounds, 10 μL MTT solution was added to each well, and cells were incubated for another 2 h at 37 °C. The cells were then lysed in 100 μL lysis buffer (25 mM HCl, 2% acetic acid, 3% DMF, and 5% SDS, adjusted to pH 4.7). Absorbance was measured at 570 nm using an Absorbance 96 microplate reader (Byonoy GmbH, Hamburg, Germany).

caspase 8 = assay: Caspase 8 activation (FAM FLICA), A172; format: cell-based, human; conditions: A172, 1.5 μM, 24 h
Description: as §1

T98G = assay: MTT assay, T98G; format: cell-based; conditions: Homo sapiens, 24 h of incubation, read-out: IC50 values ± SEM, MTT assay
Description: as §2, §3

U-87 MG = assay: LDH release assay, U-87 MG; format: cell-based, human; conditions: 1.5 μM, 24 h
Description: Analogous to the procedure described in the previous section, A172 and U-87 MG cells were cultured and plated in 96-well plates. The LDH-Cytotoxicity Assay Kit II (ab65393) (Abcam, Cambridge, UK) was used to assess cytotoxicity according to the manufacturer’s protocol. The test compounds MM118 and MM119 and the reference compound temozolomide (TMZ) were added to the cells at a concentration of 1.5 μM. After 24 h of exposure, the medium was collected, centrifuged and 10 μL of each sample was transferred to a new 96-well plate. In the next step, 100 μL of LDH Reaction Mix was added to each well and incubated for 30 min at room temperature. Absorbance was measured at 450 nm using an Absorbance 96 microplate reader (Byonoy GmbH, Hamburg, Germany). Cytotoxicity was calculated according to the formula provided by the manufacturer: Cytotoxicity (%) = ((Test Sample – Low Control)/(High Control – Low Control)) X 100, where Low Control - control without added compound, High Control with added 10 µL Lysis Buffer II.

A172 = assay: Annexin V-FITC/PI apoptosis analysis, A172; format: cell-based, human; conditions: A172, 1.5 μM, 24 h
Description: (§4) The level of apoptosis induction of the newly synthesised compounds MM118 and MM119 was determined using double staining with Annexin V-FITC and propidium iodide (AV/PI). This method enables the differentiation of four cell populations based on their state: viable cells, necrotic cells, cells in early apoptosis, and late apoptosis. The compounds were analysed on A172 and U-87 MG human glioblastoma multiforme cell lines using concentrations of 1 μM and 1.5 μM over a 24-h exposure period.
(§5) The impact of apoptosis induction by the tested compounds at concentrations of 1 μM and 1.5 μM, as well as by temozolomide at 1.5 μM, was evaluated through annexin V-FITC and propidium iodide (PI) staining with the Apoptosis Detection Kit II (BD Biosciences, San Diego, CA, USA). The glioblastoma cell lines A172 and U-87 MG were then deprived of medium and washed several times with cold phosphate-buffered saline (PBS) solution. The cell suspension was then prepared in the binding buffer provided in the kit at a concentration of 1 × 10^6 cells/mL. From each sample, 100 μL of the cell suspension was transferred to tubes and subsequently treated with 5 μL of Annexin V-FITC and 5 μL of propidium iodide (PI). The tubes were then incubated for 15 min at room temperature in the dark. Following the incubation period, 400 μL of binding buffer was added to each sample, after which the samples were immediately analysed using a BD FACSCanto II flow cytometer (Becton Dickinson Biosciences, San Jose, CA, USA), with 10,000 events recorded per sample. The results were then analysed using FACSDiva Software Version 6.1.3 (BD Biosciences Systems, San Jose, CA, USA).

[2] = Annexin V-FITC/PI apoptosis analysis, A172; format: cell-based, human; conditions: human, A172 cells, read-out: Viable cells; for viability at 24 h, 1 µM: A172, 1.0 μM; for viability at 24 h, 1.5 µM: A172, 1.5 μM
Description: as §4, §5

caspase 9 [3] = assay: Caspase 9 activation (FAM FLICA), U-87 MG; format: cell-based, human; conditions: 1.5 μM, 24 h
Description: as §1

| SMILES | Active caspase 9 (cell population) (caspase 9 [1]) | IC50 (C8-D1A) [nM] | Active caspase 8 (cell population) (caspase 8) | IC50 (T98G) [nM] | LDH release, cytotoxicity (U-87 MG) [%] | Early apoptotic cells (A172) [%] | Late apoptotic cells (A172) [%] | Necrotic cells (A172) [%] | viability at 24 h, 1 µM [2] [%] | viability at 24 h, 1.5 µM [2] [%] | Active caspase 9 (cell population) (caspase 9 [3]) |
| --- | --- | --- | --- | --- | --- | --- | --- | --- | --- | --- | --- |
| CCC(CO)NS(=O)(=O)c1ccc(-n2nc(C)c3nc4nnnn4nc32)cc1 (stereo in doubt) [MM118, N-(R)-(1-hydroxy-but-2-yl)-4-[7-methyl-5H-pyrazolo[4,3-e]tetrazolo[1,5-b][1]^,[2]^,[4]triazin-5-yl)]benzenesulfonamide] | 31.55 ± 8.07% | 2190 ± 340 | 42.85 ± 5.36% | 2440 ± 393 | 24.27 ± 2.74 | 3.03 ± 0.44 | 22.10 ± 6.56 | 9.50 ± 2.10 | 88.2 | 65.5 ± 5.06 | 67.23 ± 1.66% |
| Cn1nnc2c(C(N)=O)ncn2c1=O [TMZ, temozolomide, reference compound] | no significant differences | > 10000 | No significant statistical differences | > 10000 | 1.18 ± 0.25 | 1.55 ± 0.06 | 6.83 ± 0.39 | 1.90 ± 0.38 | – | 89.75 ± 0.71 | no significant differences |
| CCC(CO)NS(=O)(=O)c1ccc(-n2nc(C)c3nc4nnnn4nc32)cc1 (stereo in doubt) [MM119, N-(S)-(1-hydroxy-but-2-yl)-4-[7-methyl-5H-pyrazolo[4,3-e]tetrazolo[1,5-b][1]^,[2]^,[4]triazin-5-yl)]benzenesulfonamide] | 25.50 ± 6.04% | 2250 ± 294 | 34.35 ± 7.58% | 4410 ± 1190 | 28.02 ± 5.27 | 1.00 ± 0.28 | 18.80 ± 1.35 | 2.13 ± 0.62 | 90.7 | 74.8 ± 1.84 | 51.45 ± 1.63% |
